Target: T1, recombinant human GST-SYK (Homo sapiens, UniProt P43405)
T1 construct: purchased Carna Biosciences 08-176
Assay: Homogeneous Time-Resolved Fluorescence (HTRF) assay for the recombinant human SYK enzyme
Type: biochemical
Settings: recombinant human GST-SYK 5 pM, ATP 25 μM, 10-dose titration; read-out: rhSYK Activity (IC50)
In short: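 GST-hSYK (5 pM) preincubated 10 min at room temperature with inhibitor (0.1% DMSO) in Tris pH 7.5 buffer; reaction started with 250 nM biotinylated peptide, 5 mM Mg and 25 μM ATP, 45 min. EDTA quench with Eu-anti-phosphotyrosine antibody and SA-APC; HTRF read after 30 min.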

Row | Structure (SMILES) | IC50 [nM]
1 | FC(F)(F)c1ccnc(Nc2cccc(-c3cnc(NCCc4c[nH]cn4)s3)c2)n1 [Example 35] | ≤ 100
2 | Cc1cc(Nc2nccc(C(F)(F)F)n2)cc(-c2cnc(N(C)CCc3c[nH]c4ccccc34)s2)c1 [Example 90] | 100 to 1000
3 | CN(CCO)c1ncc(-c2cccc(Nc3nccc(C(F)(F)F)n3)c2)s1 [Example 4] | ≤ 100
4 | FC(F)(F)c1ccnc(Nc2cccc(-c3cnc(NCc4cccnc4)s3)c2)n1 [Example 39] | ≤ 100
5 | Cc1cc(Nc2nccc(C(F)(F)F)n2)cc(-c2cnc(N3CCN(C(=O)c4ccc5cc[nH]c5c4)CC3)s2)c1 [Example 128] | ≤ 100
6 | OCC1C2CN(c3ncc(-c4cccc(Nc5nccc(C(F)(F)F)n5)c4)s3)CC12 (centres unmarked) [Example 171] | ≤ 100
7 | FC(F)CNc1ncc(-c2cccc(Nc3nccc(C(F)(F)F)n3)c2)s1 [Example 38] | ≤ 100
8 | Cc1cc(Nc2nccc(C(F)(F)F)n2)cc(-c2cnc(N(C)Cc3cnn(C)c3)s2)c1 [Example 101] | ≤ 100
9 | Cc1cc(Nc2nccc(C(F)(F)F)n2)cc(-c2sc(N3CCCNC(=O)C3)nc2Cl)c1 [Example 228, 4-[4-chloro-5-(3-methyl-5-{[4-(trifluoromethyl)pyrimidin-2-yl]amino}phenyl)-1,3-thiazol-2-yl]-1,4-diazepan-2-one] | ≤ 100
10 | OCCCCNc1ncc(-c2cccc(Nc3nccc(C(F)(F)F)n3)c2)s1 [Example 18] | ≤ 100
11 | NC1CCN(c2ncc(-c3cccc(Nc4nccc(C(F)(F)F)n4)c3)s2)C1 (centres unmarked) [Example 162] | ≤ 100
12 | O=C(O)c1cccc(N2CCN(c3ncc(-c4cccc(Nc5nccc(C(F)(F)F)n5)c4)s3)CC2)c1 [Example 125] | ≤ 100
13 | Cc1cc(Nc2nccc(C(F)(F)F)n2)cc(-c2cnc(NCc3cn4ccccc4n3)s2)c1 [Example 89] | 100 to 1000
14 | FC(F)(F)c1ccnc(Nc2cccc(-c3cnc(NCC4CCOC4)s3)c2)n1 (centres unmarked) [Example 45] | ≤ 100
15 | CCSc1ccnc(Nc2cc(C)cc(-c3cnc(N4CCCNC(=O)C4)s3)c2)n1 [Example 221] | ≤ 100
16 | Cc1cc(Nc2nccc(C(F)(F)F)n2)cc(-c2cnc(N3CCn4ccnc4C3)s2)c1 [Example 173] | ≤ 100
17 | Cc1cc(Nc2nccc(C(F)(F)F)n2)cc(-c2cnc(NCCc3cscn3)s2)c1 [Example 110] | ≤ 100
18 | OCCN(c1ncc(-c2cccc(Nc3nccc(C(F)(F)F)n3)c2)s1)C1CCCC1 [Example 49] | 100 to 1000
19 | FC(F)(F)c1ccnc(Nc2cccc(-c3cnc(N4CCC(n5cc(-c6ccccc6)nn5)CC4)s3)c2)n1 [Example 137] | 100 to 1000
20 | Cc1cc(Nc2nccc(C(F)(F)F)n2)cc(-c2cnc(N3CCC(CC(N)=O)CC3)s2)c1 [Example 148] | ≤ 100

Now from value to compound:

Row | IC50 [nM] | Structure (SMILES)
21 | 1000 to 10000 | Cc1ccsc1CNc1ncc(-c2cccc(Nc3nccc(C(F)(F)F)n3)c2)s1 [Example 75]
22 | 100 to 1000 | FC(F)(F)c1ccnc(Nc2cccc(-c3cnc(NCc4c[nH]nc4-c4ccccc4)s3)c2)n1 [Example 78]
23 | 1000 to 10000 | O=C1CN(c2ncc(-c3cccc(Nc4nccc(C(F)(F)F)n4)c3)s2)CCN1 [Example 123]
24 | ≤ 100 | CCNC(=O)Nc1cc(Nc2nccc(C(F)(F)F)n2)cc(-c2cnc(N3CCCNC(=O)C3)s2)c1 [Example 185, 1-ethyl-3-(3-[2-(3-oxo-1,4-diazepan-1-yl)-1,3-thiazol-5-yl]-5-{[4-(trifluoromethyl)pyrimidin-2-yl]amino}phenyl)urea]
25 | ≤ 100 | OCCN(Cc1ccccn1)c1ncc(-c2cccc(Nc3nccc(C(F)(F)F)n3)c2)s1 [Example 8]
26 | ≤ 100 | Cc1cc(Nc2nccc(C3CCC3)n2)cc(-c2cnc(N3CCCNC(=O)C3)s2)c1 [Example 195]
27 | ≤ 100 | CNc1ncc(-c2cccc(Nc3nccc(C(F)(F)F)n3)c2)s1 [Example 21]
28 | ≤ 100 | Cc1cc(Nc2ncc(Cl)cn2)cc(-c2cnc(N3CCCNC(=O)C3)s2)c1 [Example 200, 4-(5-{3-[(5-chloropyrimidin-2-yl)amino]-5-methylphenyl}-1,3-thiazol-2-yl)-1,4-diazepan-2-one]
29 | ≤ 100 | CC(CO)Nc1ncc(-c2cccc(Nc3nccc(C(F)(F)F)n3)c2)s1 (centres unmarked) [Example 32]
30 | ≤ 100 | Cc1cc(Nc2nccc(C(F)(F)F)n2)cc(-c2cnc(NCCc3ccco3)s2)c1 [Example 107]
31 | ≤ 100 | N[C@H]1CCN(c2ncc(-c3cccc(Nc4nccc(C(F)(F)F)n4)c3)s2)C1 [Example 163]
32 | ≤ 100 | Cc1cc(Nc2nccc(C(F)(F)F)n2)cc(-c2cnc(NCc3cnsc3)s2)c1 [Example 104]
33 | ≤ 100 | Cc1cc(Nc2nccc(C(F)(F)F)n2)cc(-c2cnc(N3CCC4CN(C)CC4C3)s2)c1 (centres unmarked) [Example 153]
34 | ≤ 100 | O=C1CCCN1CCNc1ncc(-c2cccc(Nc3nccc(C(F)(F)F)n3)c2)s1 [Example 51]
35 | ≤ 100 | Cc1cc(Nc2nccc(C(F)(F)F)n2)cc(-c2cnc(NCCc3c(C)n[nH]c3C)s2)c1 [Example 111]
36 | ≤ 100 | Nc1cc(Nc2nccc(C(F)(F)F)n2)cc(-c2cnc(NCCO)s2)c1 [Example 190]
37 | ≤ 100 | Cc1cc(Nc2nccc(OCc3ccccc3)n2)cc(-c2cnc(N3CCCNC(=O)C3)s2)c1 [Example 208]
38 | ≤ 100 | Cn1cnc(CNc2ncc(-c3cccc(Nc4nccc(C(F)(F)F)n4)c3)s2)c1 [Example 81]
39 | 100 to 1000 | FC(F)(F)c1ccnc(Nc2cccc(-c3cnc(N4CCCC4c4ccccc4)s3)c2)n1 (centres unmarked) [Example 161]
40 | ≤ 100 | COc1ccnc(Nc2cc(C)cc(-c3cnc(N4CCCNC(=O)C4)s3)c2)n1 [Example 205]
41 | 100 to 1000 | FC(F)(F)c1ccnc(Nc2cccc(-c3cnc(NC4CCCC4)s3)c2)n1 [Example 43]
42 | ≤ 100 | Cc1cc(Nc2nccc(C(F)(F)F)n2)cc(-c2cnc(NCc3cc(C)n(C)n3)s2)c1 [Example 88]
43 | ≤ 100 | OC1(CCNc2ncc(-c3cccc(Nc4nccc(C(F)(F)F)n4)c3)s2)CCCC1 [Example 17]
44 | ≤ 100 | CSc1ccnc(Nc2cc(C)cc(-c3cnc(N4CCCNC(=O)C4)s3)c2)n1 [4-[5-(3-methyl-5-{[4-(methylsulfanyl)pyrimidin-2-yl]amino}phenyl)-1,3-thiazol-2-yl]-1,4-diazepan-2-one]
45 | ≤ 100 | Cc1cc(Nc2nccc(C(F)(F)F)n2)cc(-c2cnc(NC[C@H]3CC[C@@H](N)CC3)s2)c1 [Example 98]
46 | 100 to 1000 | FC(F)(F)c1ccnc(Nc2cccc(-c3cnc(N4CCOC(C(F)(F)F)C4)s3)c2)n1 (centres unmarked) [Example 121]
47 | ≤ 100 | O[C@H]1CC[C@H](Nc2ncc(-c3cccc(Nc4nccc(C(F)(F)F)n4)c3)s2)CC1 [Example 19]
48 | ≤ 100 | OCCOCCNc1ncc(-c2cccc(Nc3nccc(C(F)(F)F)n3)c2)s1 [Example 72]
49 | ≤ 100 | OC1CCCN(c2ncc(-c3cccc(Nc4nccc(C(F)(F)F)n4)c3)s2)C1 (centres unmarked) [Example 131]
50 | ≤ 100 | CCOCCNc1ncc(-c2cccc(Nc3nccc(C(F)(F)F)n3)c2)s1 [Example 34]

Test system: allergic rhinitis
Assay: not given
Settings: dosed intranasally, phase I/II study; cited from earlier work

Row | Structure (SMILES) | clinical safety | decrease in PGD2
51 | Oc1cccc(Nc2ncc(F)c(Nc3cccc(O)c3)n2)c1 [Example R112] | safe across a range of indicators | statistically significant decrease

Test system: allergic rhinitis
Assay: not given
Settings: phase II clinical trial; cited from earlier work

Row | Structure (SMILES) | efficacy versus placebo
52 | Oc1cccc(Nc2ncc(F)c(Nc3cccc(O)c3)n2)c1 [Example R112] | lack of efficacy versus placebo
